Earlier results, collected in US20150173349A1, “Agroformulation comprising copolymer of an amide, polyalkylene glycol (meth)acrylate, and alkyl (meth)acrylate” (BASF SE, priority 2012, published 2015).
In brackets after ≈: the same amount, converted by molar mass.

Details: 20° C.

In the case of `Cn1cc(C(=O)Nc2ccccc2-c2cc(F)c(F)c(F)c2)c(C(F)F)n1` [fluxapyroxad], the solubility in water is given as 3.88 µg/mL (≈ 10.2 µM).
